{
  "source": "patent US11464782B2",
  "about": "“Method of treating pain or interstitial cystitis using indole compound” (Japan Tobacco Inc., priority 2018, dated 2022)",
  "key": {"[1]": {"test_system": "NGF-induced thermal hyperalgesia", "assay": "NGF-induced thermal hyperalgesia in rats (plantar test, paw withdrawal latency)", "assay_type": "in vivo, rat", "procedure": "In order to induce a pain-related behavior (withdrawal behavior), NGF was injected into the plantar area of the left hind paw of rats and the thermal latencies/mechanical thresholds were measured. The effects of Compound A on these withdrawal behaviors were investigated. At 2 days before the injection of NGF, the thermal latencies or mechanical thresholds were measured for acclimation to the experimental environment. On the day before injection of NGF, body weights and values of the thermal latencies or mechanical thresholds were obtained. 50 μL of NGF solution was injected intraplantar to left hind paw of rats. 0.5 μg/site of NGF was selected in the evaluation of thermal stimuli and 1 μg/site was selected in that of mechanical stimuli. A monohydrochloride of Compound A (1, 3, or 10 mg/kg) was administered orally at the same time as the NGF injection. The latencies to thermal stimuli were measured at 3 and 6 hours after injection of NGF solution, and the thresholds to mechanical stimuli were measured at 1, 3 and 6 hours after injection of NGF solution. The evaluation was performed as a blind test of each group. The thermal latency was measured using a plantar test apparatus. An infrared heat stimuli was delivered to the plantar area of the hind paw and the time to withdraw the paw from the heat source was recorded automatically as the thermal latency. The measurement was performed 5 times for both hind paws of each animal, the averages of the last 3 values in each hind paw were accounted as the thermal latencies of each animal. The measurement for acclimation was performed only 3 times."}, "[2]": {"test_system": "NGF-induced mechanical hyperalgesia", "assay": "NGF-induced mechanical hyperalgesia in rats (pressure analgesy-meter, paw withdrawal threshold)", "assay_type": "in vivo, rat", "procedure": "In order to induce a pain-related behavior (withdrawal behavior), NGF was injected into the plantar area of the left hind paw of rats and the thermal latencies/mechanical thresholds were measured. The effects of Compound A on these withdrawal behaviors were investigated. At 2 days before the injection of NGF, the thermal latencies or mechanical thresholds were measured for acclimation to the experimental environment. On the day before injection of NGF, body weights and values of the thermal latencies or mechanical thresholds were obtained. 50 μL of NGF solution was injected intraplantar to left hind paw of rats. 0.5 μg/site of NGF was selected in the evaluation of thermal stimuli and 1 μg/site was selected in that of mechanical stimuli. A monohydrochloride of Compound A (1, 3, or 10 mg/kg) was administered orally at the same time as the NGF injection. The latencies to thermal stimuli were measured at 3 and 6 hours after injection of NGF solution, and the thresholds to mechanical stimuli were measured at 1, 3 and 6 hours after injection of NGF solution. The evaluation was performed as a blind test of each group. The mechanical threshold was measured using a pressure analgesy-meter. A mechanical stimulus (pressure) increased at a constant rate was added to the hind paw, and the pressure under load until animals withdrew its hind paw or vocalization was recorded as the mechanical threshold (mmHg)."}, "[3]": {"conditions": "1 mg/kg oral, right hind paw (uninjected side), 3 hr"}, "[4]": {"conditions": "1 mg/kg oral, right hind paw (uninjected side), 6 hr"}, "[5]": {"conditions": "1 mg/kg oral, right hind paw (uninjected side), pre"}, "[6]": {"conditions": "3 mg/kg oral, right hind paw (uninjected side), 3 hr"}, "[7]": {"conditions": "3 mg/kg oral, right hind paw (uninjected side), 6 hr"}, "[8]": {"conditions": "3 mg/kg oral, right hind paw (uninjected side), pre"}, "[9]": {"conditions": "10 mg/kg oral, right hind paw (uninjected side), 3 hr"}, "[10]": {"conditions": "10 mg/kg oral, right hind paw (uninjected side), 6 hr"}, "[11]": {"conditions": "10 mg/kg oral, right hind paw (uninjected side), pre"}},
  "note": "Counter-ions that a name gives are not always drawn.",
  "data": [
    {"smiles": "C[C@@H](C(=O)N(C)c1ccc2cc(-c3n[nH]c4c3CCC(C)(C)C4)[nH]c2c1)N1CCOCC1", "note": "[Compound A•HCl]", "values": [
      {"measurement": "Paw Withdrawal Latency", "setting": "[1]; 1 mg/kg oral, left hind paw (injected side, NGF 0.5 μg/site), 3 hr", "value": "10.0 ± 2.6", "unit": "s"},
      {"measurement": "Paw Withdrawal Latency", "setting": "[1]; 1 mg/kg oral, left hind paw (injected side, NGF 0.5 μg/site), 6 hr", "value": "8.7 ± 2.0", "unit": "s"},
      {"measurement": "Paw Withdrawal Latency", "setting": "[1]; 1 mg/kg oral, left hind paw (injected side, NGF 0.5 μg/site), pre", "value": "11.4 ± 1.2", "unit": "s"},
      {"measurement": "Paw Withdrawal Latency", "setting": "[1]; [3]", "value": "10.9 ± 1.4", "unit": "s"},
      {"measurement": "Paw Withdrawal Latency", "setting": "[1]; [4]", "value": "10.8 ± 2.4", "unit": "s"},
      {"measurement": "Paw Withdrawal Latency", "setting": "[1]; [5]", "value": "11.6 ± 1.1", "unit": "s"},
      {"measurement": "Paw Withdrawal Latency", "setting": "[1]; 3 mg/kg oral, left hind paw (injected side, NGF 0.5 μg/site), 3 hr", "value": "10.3 ± 1.6", "unit": "s"},
      {"measurement": "Paw Withdrawal Latency", "setting": "[1]; 3 mg/kg oral, left hind paw (injected side, NGF 0.5 μg/site), 6 hr", "value": "9.9 ± 1.5", "unit": "s"},
      {"measurement": "Paw Withdrawal Latency", "setting": "[1]; 3 mg/kg oral, left hind paw (injected side, NGF 0.5 μg/site), pre", "value": "11.2 ± 1.9", "unit": "s"},
      {"measurement": "Paw Withdrawal Latency", "setting": "[1]; [6]", "value": "12.3 ± 2.2", "unit": "s"},
      {"measurement": "Paw Withdrawal Latency", "setting": "[1]; [7]", "value": "11.9 ± 1.9", "unit": "s"},
      {"measurement": "Paw Withdrawal Latency", "setting": "[1]; [8]", "value": "11.6 ± 1.5", "unit": "s"},
      {"measurement": "Paw Withdrawal Latency", "setting": "[1]; 10 mg/kg oral, left hind paw (injected side, NGF 0.5 μg/site), 3 hr", "value": "11.6 ± 2.4", "unit": "s"},
      {"measurement": "Paw Withdrawal Latency", "setting": "[1]; 10 mg/kg oral, left hind paw (injected side, NGF 0.5 μg/site), 6 hr", "value": "11.3 ± 1.4", "unit": "s"},
      {"measurement": "Paw Withdrawal Latency", "setting": "[1]; 10 mg/kg oral, left hind paw (injected side, NGF 0.5 μg/site), pre", "value": "12.0 ± 1.1", "unit": "s"},
      {"measurement": "Paw Withdrawal Latency", "setting": "[1]; [9]", "value": "11.9 ± 2.7", "unit": "s"},
      {"measurement": "Paw Withdrawal Latency", "setting": "[1]; [10]", "value": "11.5 ± 1.2", "unit": "s"},
      {"measurement": "Paw Withdrawal Latency", "setting": "[1]; [11]", "value": "11.9 ± 1.2", "unit": "s"},
      {"measurement": "Paw Withdrawal Threshold (mmHg)", "setting": "[2]; 1 mg/kg oral, left hind paw (injected side, NGF 1 μg/site), 1 hr", "value": "107 ± 17", "unit": "mmHg"},
      {"measurement": "Paw Withdrawal Threshold (mmHg)", "setting": "[2]; 1 mg/kg oral, left hind paw (injected side, NGF 1 μg/site), 3 hr", "value": "104 ± 20", "unit": "mmHg"},
      {"measurement": "Paw Withdrawal Threshold (mmHg)", "setting": "[2]; 1 mg/kg oral, left hind paw (injected side, NGF 1 μg/site), 6 hr", "value": "90 ± 11", "unit": "mmHg"},
      {"measurement": "Paw Withdrawal Threshold (mmHg)", "setting": "[2]; 1 mg/kg oral, left hind paw (injected side, NGF 1 μg/site), Pre", "value": "126 ± 21", "unit": "mmHg"},
      {"measurement": "Paw Withdrawal Threshold (mmHg)", "setting": "[2]; 1 mg/kg oral, right hind paw (uninjected side), 1 hr", "value": "134 ± 16", "unit": "mmHg"},
      {"measurement": "Paw Withdrawal Threshold (mmHg)", "setting": "[2]; [3]", "value": "135 ± 21", "unit": "mmHg"},
      {"measurement": "Paw Withdrawal Threshold (mmHg)", "setting": "[2]; [4]", "value": "133 ± 9", "unit": "mmHg"},
      {"measurement": "Paw Withdrawal Threshold (mmHg)", "setting": "[2]; [5]", "value": "132 ± 15", "unit": "mmHg"},
      {"measurement": "Paw Withdrawal Threshold (mmHg)", "setting": "[2]; 3 mg/kg oral, left hind paw (injected side, NGF 1 μg/site), 1 hr", "value": "118 ± 17", "unit": "mmHg"},
      {"measurement": "Paw Withdrawal Threshold (mmHg)", "setting": "[2]; 3 mg/kg oral, left hind paw (injected side, NGF 1 μg/site), 3 hr", "value": "121 ± 21", "unit": "mmHg"},
      {"measurement": "Paw Withdrawal Threshold (mmHg)", "setting": "[2]; 3 mg/kg oral, left hind paw (injected side, NGF 1 μg/site), 6 hr", "value": "106 ± 11", "unit": "mmHg"},
      {"measurement": "Paw Withdrawal Threshold (mmHg)", "setting": "[2]; 3 mg/kg oral, left hind paw (injected side, NGF 1 μg/site), Pre", "value": "152 ± 26", "unit": "mmHg"},
      {"measurement": "Paw Withdrawal Threshold (mmHg)", "setting": "[2]; 3 mg/kg oral, right hind paw (uninjected side), 1 hr", "value": "133 ± 19", "unit": "mmHg"},
      {"measurement": "Paw Withdrawal Threshold (mmHg)", "setting": "[2]; [6]", "value": "141 ± 10", "unit": "mmHg"},
      {"measurement": "Paw Withdrawal Threshold (mmHg)", "setting": "[2]; [7]", "value": "144 ± 23", "unit": "mmHg"},
      {"measurement": "Paw Withdrawal Threshold (mmHg)", "setting": "[2]; [8]", "value": "148 ± 25", "unit": "mmHg"},
      {"measurement": "Paw Withdrawal Threshold (mmHg)", "setting": "[2]; 10 mg/kg oral, left hind paw (injected side, NGF 1 μg/site), 1 hr", "value": "130 ± 20", "unit": "mmHg"},
      {"measurement": "Paw Withdrawal Threshold (mmHg)", "setting": "[2]; 10 mg/kg oral, left hind paw (injected side, NGF 1 μg/site), 3 hr", "value": "134 ± 22", "unit": "mmHg"},
      {"measurement": "Paw Withdrawal Threshold (mmHg)", "setting": "[2]; 10 mg/kg oral, left hind paw (injected side, NGF 1 μg/site), 6 hr", "value": "130 ± 18", "unit": "mmHg"},
      {"measurement": "Paw Withdrawal Threshold (mmHg)", "setting": "[2]; 10 mg/kg oral, left hind paw (injected side, NGF 1 μg/site), Pre", "value": "136 ± 17", "unit": "mmHg"},
      {"measurement": "Paw Withdrawal Threshold (mmHg)", "setting": "[2]; 10 mg/kg oral, right hind paw (uninjected side), 1 hr", "value": "144 ± 14", "unit": "mmHg"},
      {"measurement": "Paw Withdrawal Threshold (mmHg)", "setting": "[2]; [9]", "value": "139 ± 17", "unit": "mmHg"},
      {"measurement": "Paw Withdrawal Threshold (mmHg)", "setting": "[2]; [10]", "value": "139 ± 13", "unit": "mmHg"},
      {"measurement": "Paw Withdrawal Threshold (mmHg)", "setting": "[2]; [11]", "value": "139 ± 17", "unit": "mmHg"}
    ]}
  ]
}
